Patent US8946167B2, “Pharmaceutical compositions containing plasma protein” (priority 1997, dated 2015)

Experiments:
human gamma globulin = assay: binding of active substance to human gamma globulin (ultrafiltration, HPLC); conditions: Example II.4; 2.25% human gamma globulin + 0.1 mg/ml paclitaxel in absolute ethanol 9:1; lyophilised, redissolved; UF
histamine release = assay: hypersensitivity test: plasma histamine level in rats; type: in vivo, CRL (WI) BR male rats; conditions: around 7.0 mg/kG for paclitaxel i.v., blood after 2, 5 and 10 minutes

binding of paclitaxel to human gamma globulin (human gamma globulin): 98%
histamine release induction (plasma histamine level) (histamine release): do not show any such effect
Compound: CC(=O)O[C@H]1C(=O)[C@@]2(C)[C@H]([C@H](OC(=O)c3ccccc3)[C@]3(O)C[C@H](OC(=O)[C@H](O)[C@@H](NC(=O)c4ccccc4)c4ccccc4)C(C)=C1C3(C)C)[C@]1(OC(C)=O)CO[C@@H]1C[C@@H]2O [paclitaxel]
